# Reference: patent publication US20060189539A1, “Novel GnRH analogues with antitumour effects and pharmaceutical compositions thereof” (priority 1994, published 2006)
# Tests used:
# [1] = system: MCF-7 human mammary carcinoma cell line; test: Inhibition of colony formation (dose-survival), Example 48; type: cell-based; conditions: 50 μM
# MCF-7 cells = test: Inhibition of cell division (cell count), Example 49; type: cell-based, human; conditions: MCF-7 (2x); 30 μM
# Protocol: After being treated with trypsin, 300,000 each of MCF-7, MDA-MB-231, PC3 or Ishikawa cells, respectively, were passed into Petri dishes of 10 cm in diameter. Starting from the day following the setting, the cells were treated with 1-50 μM of the GnRH analogue in the exponential growth phase. During the experiment lasting for 5 days, the cells were treated in every two days with the peptide hormone dissolved in the nutrient medium, then the cell count was determined on the sixth day.
# [2] = system: MCF-7 and MDA-MB-231 cell lines; conditions: 30 μM
# Protocol: The procedure of treatment was as follows. After trypsinization the cells, 400,000 cells of MCF-7, MDA-MB-231 human mammary carcinoma, PC3 human prostate carcinoma or Ishikawa human endometrium tumour each were passed into Petri dishes of 10 cm in diameter. Starting from the day following transfer, the cells were treated with the substances to be tested in solution prepared with the nutrient medium during the exponential growth phase. The cultures were treated with 1 to 50 μM (calculated for the total volume of the culture) of MI-1544 GnRH antagonist, MI-1892 chicken GnRH antagonist or SJ-1004 GnRH antagonist analogues as well as synthetic lamprey GnRH-III hormone in every two days and the cell count was determined on the 7th day.
# MDA-MB-231 xenograft = test: In vivo antitumour effect on MDA-MB-231 xenograft; parameters: species or system immunosuppressed CBA/Ca mice
# Protocol: The immunosuppression of mice was carried out by using the method of Steel et al. (1978).
# CBA/Ca female mice of about 6 weeks old were thymectomized and then, after one week, they were irradiated with 60Co (whole body irradiation; the lethal dose is 9.5 Gray). Within 24 hours 3 to 5×10^5 myelocytes were injected to the animals. Beneath the skin of the immunosuppressed mice 2×10^7 tumour cells or, in the case of later passages, about 2 mm^3 of tumour cells or in the case of later, additional passages about 2 mm^3 of tumour pieces were implanted. […] The treatment with steroid hormone was stopped by at least one week before beginning the investigation.
# Recent investigations have begun on 28 animals bearing MCF-7 xenograft .and on 28 animals bearing MDA-MB-231 xenograft. On animals bearing MCF-7 tumour the treatment was commenced in the 5th week following xeno-transplantation; the tumour volume was 205 to 225 mm^3. On animals bearing MDA-MB-231 tumour, the treatment was started in the 4th week after xeno-transplantation with a tumour volume of 140 to 150 mm^3. […] The control groups were daily treated with physiological saline s.c. (Each treated group consisted of 7 animals.)
# A more recent study was started on 28 animals bearing. MDA-MB-231 xenograft. The treatment was begun in the 4th or 5th week following xenotransplantation. The tumour volume was 0.165 to 0.194 cm3. […] (For treatment of the control group, see the preceding Examples). Each group consisted of 7 animals.
# [3] = system: Ishikawa endometrium tumour cell culture; test: Inhibition of colony formation (dose-survival), Example 48; type: cell-based, human; conditions: within the dose range used (1-50 μM)
# Description: (§1) MCF-7 human mammary carcinoma cell line was stabilized in 1973 by Soule et al. from the pleural fluid of a patient suffering from mammary carcinoma. MDA-MB-231 human mammary carcinoma cell line was isolated and stabilized by Cailleau et al. in 1974 similarly from pleural fluid. Both cell lines grow in monolayer. MCF-7 and MDA-MB-231 human mammary carcinoma cell lines are maintained in plastic flasks (Greiner), in Dulbecco-modified Eagle-MEM (DMEM, GIBCO) liquid nutrient medium containing 10% of fetal calf serum. MCF-7 cell line is estradiol receptor (ER)-positive containing proteins specifically binding GnRH. Thus, it represents, a useful model system for investigating the direct effect of GnRH mediated by the GnRH receptor. Being ER-negative and GnRH receptor-positive, MDA-MB-231 cell line is similarly suitable to study the direct effect of GnRH. PC3 human prostate carcinoma cell line was stabilized in cell culture by Kaighn et al. in 1979. The cells are of epithelial type and form compact colonies in clonogenic assays. The Ishikawa cell line originates from human endometrial adenocarcinoma [M. Nishida et al.: Acta Obstet. Gynecol. Jpn. 37, 1103-1111 (1985)], it is epithelial in its character and contains steroid-as well as GnRH receptors.
# (§2) The examination gives accurate information about the cell-damaging effect of the substance tested as a function of varying doses. The treatment was carried out once; the colonies formed from the surviving cells were counted after 8-12 days. […] A part of the arrested cells again entered the cycle, an other part of them might be destroyed (apoptosis). […] In the case of a dose-response investigation, colonies containing less than 15 cells were not counted. 300 cells were put into each Petri dishes of 3.5 cm in diameter. The treatment was once carried out 24 hours after setting, then the colonies formed were counted after 8-12 days. The cells were treated once after 24 hours with 1-50 μM of various GnRH analogues of Examples above or with 1-50 μM of GnRH-III, respectively. The percentages of inhibition obtained on MCF-7, MDA-MB-231, PC3 and Ishikawa cells, respectively, together with the dose of the active agent used are shown in Table VIII.
# [4] = system: PC3 prostate tumour cell culture; test: as above; type: cell-based, human; conditions: 50 μM
# Description: as §1, §2
# [5] = system: LH release from rat hypophysis; conditions: superfusion; cited from earlier work
# ovulation of female rats = conditions: prolonged treatment for three cycles, even in high doses; cited from earlier work
# [6] = 1 × 100 μg daily s.c., week 6 (Table V)
Molecule,% Inhibition of colony formation [1] [%],% Inhibition of cell proliferation (MCF-7 cells) [%],Inhibition of cell proliferation [2],Effect on the rate of tumour growth (MDA-MB-231 xenograft; 100 μg daily s.c.),"Tumour volume as control (%) (MDA-MB-231 xenograft; 1 × 100 μg daily s.c., week 4)","Tumour volume as control (%) (MDA-MB-231 xenograft; 1 × 100 μg daily s.c., week 6)",Inhibition % (MDA-MB-231 xenograft; [6]) [%],Tumour volume as control (%) (MDA-MB-231 xenograft; [6]),Inhibition of colony formation [3],% Inhibition of colony formation [4] [%],LH-releasing effect compared with human GnRH [5],Inhibition of ovulation (ovulation of female rats)
"Ac-D-Trp1,3,D-Cpa2,{Lys[n-poly(N-vinyl pyrrolidone-co-maleic acid)-]}5,[a-Asp(DEA)]6,D-Ala10-GnRH [Compound P-1892]",26,0,,,,,,,,,,
"NCCCC[C@H](NC(=O)[C@H](Cc1c[nH]c2ccccc12)NC(=O)[C@H](CC(=O)O)NC(=O)[C@H](Cc1c[nH]cn1)NC(=O)[C@H](CO)NC(=O)[C@H](Cc1c[nH]c2ccccc12)NC(=O)[C@H](Cc1c[nH]cn1)NC(=O)[C@@H]1CCC(=O)N1)C(=O)N1CCC[C@H]1C(=O)NCC(N)=O [GnRH-III, reference compound]",,,40-39%,did not inhibit the rate of tumour growth,85,85,15,85,did not inhibit,21,about thousand times weaker,did not inhibit the ovulation
